Measured values from patent US11458126B2, “DHODH inhibitor for use in treating hematologic cancers” (PTC THERAPEUTICS, INC., priority 2017, dated 2022).

Molecular target: DHODH (Homo sapiens, UniProt Q02127)
Test: Purified rhDHODH enzymatic assay
Format: biochemical
Parameters: full length purified recombinant human DHODH or mitochondria isolated from K562 cells were used as enzyme sources
Conditions: compared with activity in hematologic cancer cells and other DHODH inhibitors
Excerpt: Low pyrimidine pool levels may affect certain translation factor(s) or mechanisms required for the non-canonical protein synthesis of stress-regulated mRNAs. […] EIF1A is an isoform that controls translation start codon recognition. Low uridine levels may also affect the mRNA substrate directly: depletion of pyrimidine nucleotides in cancer cells can cause a starvation-like stress response leading to changes in methylation and pseudouridylation of mRNA modifications.
In Vitro DHODH Activity Assays. The chromogen reduction assay was carried out as previously reported. DHODH activity was determined in the presence of compounds or vehicle control using the standard colorimetric DHODH continuous assay in which the oxidation of dihydroorotic acid (DHO) and subsequent reduction of ubiquinone is coupled with and measured by monitoring the reduction of 2,6-dichlorophenolindophenol (DCPIP). Briefly, full length purified recombinant human DHODH or mitochondria isolated from K562 cells were used as enzyme sources to test compound inhibition of DHODH activity. […] The DCIP reduction was monitored by measuring the absorbance at OD610 nm on a BioTek Power Wave XS2 and the enzyme reaction velocity was derived for each reaction using the GENS software.

DHODH, sequence (Q02127 whole entry): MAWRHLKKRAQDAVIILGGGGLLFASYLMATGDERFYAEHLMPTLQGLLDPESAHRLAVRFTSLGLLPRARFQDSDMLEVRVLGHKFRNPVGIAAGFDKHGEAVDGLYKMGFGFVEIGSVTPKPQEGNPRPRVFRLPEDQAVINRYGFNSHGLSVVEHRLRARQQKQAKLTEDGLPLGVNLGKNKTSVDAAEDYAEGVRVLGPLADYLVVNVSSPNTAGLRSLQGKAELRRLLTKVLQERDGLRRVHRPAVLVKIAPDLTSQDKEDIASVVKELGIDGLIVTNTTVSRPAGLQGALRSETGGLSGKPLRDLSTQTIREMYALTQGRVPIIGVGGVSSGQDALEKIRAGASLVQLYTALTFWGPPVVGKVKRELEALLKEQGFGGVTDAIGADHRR

COc1ccc([C@H]2c3[nH]c4ccc(Cl)cc4c3CCN2C(=O)Oc2ccc(Cl)cc2)cc1 [Cpd 1, 4-chlorophenyl (S)-6-chloro-1-(4-methoxyphenyl)-1,3,4,9-tetrahydro-2H-pyrido[3,4-b]indole-2-carboxylate]
inhibition of DHODH functional activity in purified rhDHODH enzymatic assays: less inhibition of DHODH functional activity
